In one data set the test system is U87MG cells. Kind of data set: Cell proliferation (cell confluence), IncuCyte Live-Cell Analysis System. Particulars: Mito-PEG5-ATO 0.15 µM, AZD-3965 600 µM. Type of data set: cell-based, human. Here is the method:
(§1) The following cell lines were obtained from the American Type Culture Collection (Manassas, VA), where they were regularly authenticated: MiaPaCa-2 (ATCC Cat# CRL-1420, human pancreatic cancer cells), U87MG (ATCC Cat# HTB-14, human brain cancer cells), A549 (ATCC Cat# CCL-185, lung cancer cells), and HCT-116 (ATCC Cat# CCL-247, colon cancer cells). All cell lines were grown at 37 °C in 5% carbon dioxide. MiaPaCa-2 cells were maintained in Dulbecco's Modified Eagle Medium (Thermo Fisher Scientific, Waltham, MA; Cat# 11965) supplemented with 10% fetal bovine serum. U87MG, A549, and HCT-116 cells were maintained in RPMI 1640 medium (Thermo Fisher Scientific, Cat# 11875), supplemented with 10% fetal bovine serum. All cells were stored in liquid nitrogen and used within 20 passages after thawing.
The IncuCyte Live-Cell Analysis System was used to monitor cell proliferation[3],[33],[67]. As shown in previous publications[3],[67], this imaging system is probe-free and noninvasive, and enables continuous monitoring of cell confluence over several days. […] Cells were then treated with Mito-PEG-ATO analogs, and the cell confluency was recorded over several days in the IncuCyte Live-Cell Analysis System.
Figure S4. […] (a) Effects of Mito-PEG-ATO analogs on the proliferation of U87MG cells were monitored in the IncuCyte Live-Cell Analysis System. […]

The target of data set [1] is mitochondrial complex I (MiaPaCa-2 cells) (Homo sapiens, UniProt O75251+O75306+P03886). Kind of data set: Complex I-dependent oxygen consumption in permeabilized cells, Seahorse XF-96. The format is cell-based. As to conditions: 24 h, with Mito-PEG5-ATO. Here is the method:
Mitochondrial oxygen consumption was measured using the Seahorse XF-96 Extracellular Flux Analyzer (Agilent, North Billerica, MA)[3],[33],[67],[68]. To determine the intact cell mitochondrial function of MiaPaCa-2 cells in response to Mito-PEG-ATO analogs, we used the bioenergetic function assay previously described[2],[3]. […] From these measurements, indices of mitochondrial function were determined as previously described[2],[3]. For mitochondrial complex activities assays, after cells were treated with Mito-PEG-ATO analogs for 24 h, the OCR-based assessment of mitochondrial complex activities was carried out on acutely permeabilized cells in the presence of different mitochondrial substrates, i.e., pyruvate/malate for complex I and duroquinol for complex III[3],[32],[34],[69]. Rotenone, malonate, and antimycin A (Sigma-Aldrich, St. Louis, MO) were used as specific inhibitors of mitochondrial complexes I, II, and III, respectively. Briefly, cells that were intact after treatments were immediately permeabilized using the Seahorse XF Plasma Membrane Permeabilizer (Agilent). The mitochondrial complex I-induced OCR was assayed in mannitol and sucrose buffer[69] containing 10 mM pyruvate and 1.5 mM malate (substrates for complex I) and 10 mM malonate (which inhibits complex II activities). […] The IC50 values were determined as previously reported.

Data set [2] relates to MiaPaCa-2 cells. Kind of data set: Intracellular ATP, luciferase-based assay. Type of data set: cell-based, human. Here is the method:
After seeding cells overnight at 2 × 10^4 per well in 96-well plates, cells were treated for 24 h. Intracellular ATP levels were determined in cell lysates using a luciferase-based assay per the manufacturer’s instructions (cat# FLAA, Sigma Aldrich, St. Louis, MO). In brief, the assay starts by rapidly adding an ATP assay mix solution (luciferase and luciferin solution, cat# FLAAM) to cell lysates. This is swirled briskly to mix, and the amount of light produced is immediately measured with a luminometer. The results were normalized to the total protein level measured in each well, as determined by the Bradford method (Bio-Rad Laboratories, Hercules, CA).

A further data set concerns A549 cells. Kind of data set: Cell proliferation (cell confluence), IncuCyte Live-Cell Analysis System. The format is cell-based. As to conditions: Homo sapiens, A549, read-out: IC50, inhibition of A549 cell proliferation. Here is the method:
as §1
(§2) The IncuCyte Live-Cell Analysis System was used to monitor cell proliferation[3],[33],[67]. As shown in previous publications[3],[67], this imaging system is probe-free and noninvasive, and enables continuous monitoring of cell confluence over several days. The increase in the percentage of cell confluence was used as a surrogate marker of cell proliferation. In a 96-well plate, cells were plated at 1,000 cells per well in triplicates and left to adhere overnight. Cells were then treated with Mito-PEG-ATO analogs, and the cell confluency was recorded over several days in the IncuCyte Live-Cell Analysis System.
(§3) Figure S7. Effects of Mito-PEG-ATO analogs on the proliferation of human lung cancer (A549) cells and human colon cancer (HCT-116) cells. (A) The effects of Mito-PEG5-ATO and ATO on the proliferation of A549 (left) or HCT-116 (right) cells were monitored in the IncuCyte Live-Cell Analysis system. The IncuCyte analyzer provides real-time updates on cell confluence, based on segmentation of high definition-phase contrast images. Representative cell images were shown as a segmentation mask illustrated in brown when control cells reached 90% confluence (vertical solid black line). (B) The IC50 values for A549 (left) or HCT-116 (right) cells were determined at the point at which control cells reached ~90% confluence (vertical solid black line). Relative cell confluence (control is taken as 100%) is plotted against concentration. Dashed lines represent the fitting curves used to determine the IC50 values as indicated. Data shown are the mean±SD.

A further data set relates to HCT-116 cells. Described as above. The format is cell-based. Particulars: Homo sapiens, HCT-116, read-out: IC50, inhibition of HCT-116 cell proliferation. Here is the method: as §1, §2, §3
The test system of data set [3] is MiaPaCa-2 cells. Kind of data set: Cell death by SYTOX Green staining, IncuCyte. As to conditions: Mito-PEG5-ATO 0.04 µM, AZD-3965 200 µM, 72 h.

Chain of mitochondrial complex I (MiaPaCa-2 cells) (O75306 34-463): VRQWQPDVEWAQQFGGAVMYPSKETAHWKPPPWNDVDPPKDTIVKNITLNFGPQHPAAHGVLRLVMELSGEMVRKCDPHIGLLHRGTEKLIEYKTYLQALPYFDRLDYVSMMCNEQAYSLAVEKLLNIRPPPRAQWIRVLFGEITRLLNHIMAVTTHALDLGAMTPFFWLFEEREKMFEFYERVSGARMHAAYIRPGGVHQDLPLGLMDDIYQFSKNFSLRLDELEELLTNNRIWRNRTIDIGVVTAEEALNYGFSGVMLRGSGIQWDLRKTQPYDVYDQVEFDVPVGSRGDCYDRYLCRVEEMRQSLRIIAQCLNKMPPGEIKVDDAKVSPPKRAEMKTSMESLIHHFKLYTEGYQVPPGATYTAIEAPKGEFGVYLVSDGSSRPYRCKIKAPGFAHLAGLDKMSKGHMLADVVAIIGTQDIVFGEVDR
Chain of mitochondrial complex I (MiaPaCa-2 cells) (O75251 39-213): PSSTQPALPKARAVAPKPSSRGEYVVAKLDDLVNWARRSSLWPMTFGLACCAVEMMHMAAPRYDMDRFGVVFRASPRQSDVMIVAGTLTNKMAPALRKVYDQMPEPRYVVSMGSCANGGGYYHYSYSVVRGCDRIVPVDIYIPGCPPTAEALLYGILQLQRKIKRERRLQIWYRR
Chain of mitochondrial complex I (MiaPaCa-2 cells) (P03886 whole entry): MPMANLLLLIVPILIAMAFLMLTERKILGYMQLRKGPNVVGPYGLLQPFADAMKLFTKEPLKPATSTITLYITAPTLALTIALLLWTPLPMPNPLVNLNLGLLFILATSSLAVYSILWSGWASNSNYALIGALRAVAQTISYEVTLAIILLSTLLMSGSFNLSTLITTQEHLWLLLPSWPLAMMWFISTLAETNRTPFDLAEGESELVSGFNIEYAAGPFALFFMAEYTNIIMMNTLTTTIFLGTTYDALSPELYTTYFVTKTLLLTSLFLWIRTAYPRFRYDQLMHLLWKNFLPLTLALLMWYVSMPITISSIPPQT

Consider `Cc1[nH]nc(C(F)(F)F)c1Cc1sc2c(c1C(=O)N1C[C@](C)(O)CO1)c(=O)n(C)c(=O)n2C(C)C` [AZD-3965], for which the “Inhibition of cell proliferation in combination with Mito-PEG5-ATO” value in the data set with U87MG cells is “Synergistic inhibition”. Also, in data set [1], the “Effect on the decrease in complex I-induced oxygen consumption induced by Mito-PEG5-ATO” value is “Neither AZD-3965 nor V-9302 significantly affected”. The “intracellular ATP level” value in the data set on MiaPaCa-2 cells [2] (AZD-3965 10 µM, Mito-PEG5-ATO 0 µM, 24 h treatment, mean n=4) was found to be 28.98 nmol ATP/mg protein; in the data set on MiaPaCa-2 cells [2] (AZD-3965 20 µM, Mito-PEG5-ATO 0 µM, 24 h treatment, mean n=4), 29.42 nmol ATP/mg protein; with MiaPaCa-2 cells [2] (AZD-3965 30 µM, Mito-PEG5-ATO 0 µM, 24 h treatment, mean n=4) it was 28.90 nmol ATP/mg protein; in the data set on MiaPaCa-2 cells [2] (AZD-3965 40 µM, Mito-PEG5-ATO 0 µM, 24 h treatment, mean n=4), 30.34 nmol ATP/mg protein; with MiaPaCa-2 cells [2] (AZD-3965 60 µM, Mito-PEG5-ATO 0 µM, 24 h treatment, mean n=4), 30.77 nmol ATP/mg protein; in the data set on MiaPaCa-2 cells [2] (AZD-3965 80 µM, Mito-PEG5-ATO 0 µM, 24 h treatment, mean n=4) it was 30.40 nmol ATP/mg protein. For the same compound, the “intracellular ATP level” value is reported as 31.41 nmol ATP/mg protein in the data set on MiaPaCa-2 cells [2] (AZD-3965 100 µM, Mito-PEG5-ATO 0 µM, 24 h treatment, mean n=4); 32.36 nmol ATP/mg protein in the data set on MiaPaCa-2 cells [2] (AZD-3965 150 µM, Mito-PEG5-ATO 0 µM, 24 h treatment, mean n=4); 30.51 nmol ATP/mg protein in the data set with MiaPaCa-2 cells [2] (AZD-3965 200 µM, Mito-PEG5-ATO 0 µM, 24 h treatment, mean n=4); 31.60 nmol ATP/mg protein in the data set on MiaPaCa-2 cells [2] (AZD-3965 400 µM, Mito-PEG5-ATO 0 µM, 24 h treatment, mean n=4); 31.63 nmol ATP/mg protein with MiaPaCa-2 cells [2] (AZD-3965 600 µM, Mito-PEG5-ATO 0 µM, 24 h treatment, mean n=4).

`O=C1C(OCCOCCOCCOCCOCC[P+](c2ccccc2)(c2ccccc2)c2ccccc2)=C([C@H]2CC[C@H](c3ccc(Cl)cc3)CC2)C(=O)c2ccccc21.[Br-]` [Mito-PEG5-ATO, [14-((3-(trans-4-(4-chlorophenyl)cyclohexyl)-1,4-dioxo-1,4-dihydronaphthalen-2-yl)oxy)-3,6,9,12-tetraoxatetradecyl]triphenylphosphonium bromide]: the figures for the IC50 with A549 cells and in the data set with HCT-116 cells were 110 nM and 140 nM, respectively. Further, in the data set with MiaPaCa-2 cells [2] (MiaPaCa-2 cells, 24 h, alone and with AZD-3965 or syrosingopine), the “Intracellular ATP levels” value is recorded as “not due to intracellular ATP depletion”. The “intracellular ATP level” value in the data set on MiaPaCa-2 cells [2] (Mito-PEG5-ATO 0.02 µM, AZD-3965 0 µM, 24 h) is 34.79 nmol ATP/mg protein; in the data set on MiaPaCa-2 cells [2] (Mito-PEG5-ATO 0.02 µM, syrosingopine 0 µM, 24 h), 33.08 nmol ATP/mg protein; in the data set with MiaPaCa-2 cells [2] (Mito-PEG5-ATO 0.04 µM, AZD-3965 0 µM, 24 h), 29.69 nmol ATP/mg protein; with MiaPaCa-2 cells [2] (Mito-PEG5-ATO 0.04 µM, syrosingopine 0 µM, 24 h), 29.16 nmol ATP/mg protein; with MiaPaCa-2 cells [2] (Mito-PEG5-ATO 0.06 µM, AZD-3965 0 µM, 24 h), 29.11 nmol ATP/mg protein; in the data set on MiaPaCa-2 cells [2] (Mito-PEG5-ATO 0.06 µM, syrosingopine 0 µM, 24 h) it was 28.90 nmol ATP/mg protein. Moreover, the “intracellular ATP level” value in the data set on MiaPaCa-2 cells [2] (Mito-PEG5-ATO 0.08 µM, AZD-3965 0 µM, 24 h) is 28.15 nmol ATP/mg protein; in the data set on MiaPaCa-2 cells [2] (Mito-PEG5-ATO 0.08 µM, syrosingopine 0 µM, 24 h), 27.83 nmol ATP/mg protein; in the data set on MiaPaCa-2 cells [2] (Mito-PEG5-ATO 0.1 µM, AZD-3965 0 µM, 24 h), 27.57 nmol ATP/mg protein; in the data set with MiaPaCa-2 cells [2] (Mito-PEG5-ATO 0.1 µM, syrosingopine 0 µM, 24 h), 27.64 nmol ATP/mg protein; in the data set with MiaPaCa-2 cells [2] (Mito-PEG5-ATO 0.15 µM, AZD-3965 0 µM, 24 h), 28.14 nmol ATP/mg protein; in the data set on MiaPaCa-2 cells [2] (Mito-PEG5-ATO 0.15 µM, syrosingopine 0 µM, 24 h), 28.11 nmol ATP/mg protein. In addition, the “intracellular ATP level” value in the data set on MiaPaCa-2 cells [2] (Mito-PEG5-ATO 0.5 µM, AZD-3965 0 µM, 24 h) is reported as 26.75 nmol ATP/mg protein; in the data set on MiaPaCa-2 cells [2] (Mito-PEG5-ATO 0.5 µM, syrosingopine 0 µM, 24 h), 26.12 nmol ATP/mg protein. Also, the “Cell death / cell toxicity (SYTOX Green counts)” value with MiaPaCa-2 cells [3] is given as “similarly low SYTOX Green counts”.

For the origin of these results see publication PMC8948292, “Combining PEGylated mito-atovaquone with MCT and Krebs cycle redox inhibitors as a potential strategy to abrogate tumor cell proliferation” (Scientific Reports, 2022).
